# Earlier results as cited in patent US10751314B2, “Compositions comprising rumenic acid-rich conjugated linoleic acid for joint health” (STEPAN SPECIALTY PRODUCTS, LLC, priority 2016, dated 2020).
# What was measured:
# [1] = system: young men and women with birch pollen allergy; conditions: 8 weeks of supplementation
# human epithelial cells = conditions: via activation of PPARγ
# PPARγ = conditions: mouse macrophage cells
smiles,measurement,setting,value
"CCCCCC/C=C/C=C\CCCCCCCC(=O)O [RA, cis-9, trans-11 linoleic acid]",Allergic responses mediated by inflammation,[1],reduced
same,Inflammatory responses,human epithelial cells,reduced inflammatory responses
same,Antioxidant activity,PPARγ,served as an antioxidant
same,PPARγ activation,PPARγ,activated
